# ± gives the expanded uncertainty stated by the source.
# Conditions: Liquid, Ebulliometric method (Recirculating still)
Structure (SMILES),vapor or sublimation pressure (329.35 K),vapor or sublimation pressure (337.75 K)
CC(C)=O [acetone],101 ± 1.3 kPa,
CO [methanol],,101 ± 1.3 kPa

# — the NIST ThermoML archive (doi:10.1021/je049688b)
